Results published in patent publication US12421276B2 (priority 2016, dated 2025).
Where a SMILES comes first, the peptide text is derived from it. [ ]: non-standard residue; d: D form. The star is where a group is joined. Hexanoyl = CCCCCC(=O)*; Ahx = NCCCCCC(=O)O

Experiments:
[1] = Plasma stability study, human plasma; type: in vitro ADME; details: human, plasma
Method: (§1) Human and rat plasma (K2 EDTA) were obtained from Bioreclamation.
(§2) Compounds were dissolved as 0.3 mM DMSO stocks. Compounds were transferred to the plasma at 1 μM on a 96-well deep well plate. After mixing, samples were transferred to several 96-well plates (25 μL/well), and incubated at 37° C. The extent of metabolism was calculated as the disappearance of the test compound, compared to the 0-min control reaction incubations. Propantheline was included as a positive control to verify assay performance.
(§3) At each of the time points, 150 μL of quench solution (50% acetonitrile, 50% methanol with 0.05% formic acid) with internal standard (bucetin for positive ESI mode and warfarin for negative ESI mode) was transferred to each well. Plates were sealed and centrifuged at 4° C. for 15 minutes at 4000 rpm. The supernatant was transferred to fresh plates for LC/MS/MS analysis.
(§4) Elution conditions are detailed in the table below.
(§5) Initial rates of the clearance of test compounds were calculated using linear regression of semi-log plot of % remaining of compounds versus time. The elimination rate constant (equals to −slope) of the linear regression was then used to determine t½ values.

[2] = Plasma stability study, rat plasma; type: in vitro ADME; details: rat, plasma
Method: as §1, §2, §3, §4, §5

Caco-2 cells = assay: Caco-2 permeability study with or without P-gp inhibitor GF120918; details: for Abs. Quotient: (Papp A-B with inhibitor − without inhibitor)/Papp A-B with inhibitor; for Caco-2 Cells Permeability Recovery Rate: 1 hr, pH 7.4
Method: Buffer=HBSS, pH 7.4 with 5 mM HEPES
Caco-2 cell plates were obtained commercially and were maintained for 21 days at 37° C. with 5% CO2. Cells were washed with Hank's Balanced Salt Solution (HBSS) 30 min before starting the experiment. Test compound solutions were prepared by diluting from DMSO stock into HBSS buffer in the presence or absence of 10 μM of P-gp inhibitor GF120918. The final DMSO concentration is 0.2%. Prior to each experiment, cell monolayer integrity was verified by transendothelial electrical resistance (TEER). Transport experiment was initiated by adding test compounds to the apical (75 μL) side. Transport plates were incubated at 37° C. in a humidified incubator with 5% CO2. Samples were taken from the donor and acceptor compartments after 1 hr and analyzed by liquid chromatography with tandem mass spectrometry (LC/MS/MS).
Apparent permeability (Papp) values were calculated using the following equation: Papp=(dQ/dt)/A/C0
where dQ/dt is the initial rate of amount of test compound transported across cell monolayer, A is the surface area of the filter membrane, and C0 is the initial concentration of the test compound. C0 is calculated for each condition using a 4-point calibration curve.
Absorption quotient between the two assay conditions was calculated by the following equation:
Absorption quotient (AQ)=(Papp, A-B with inhibitor−Papp, A-B without inhibitor)/Papp, A-B with inhibitor where Papp, A-B with inhibitor and Papp, A-B without inhibitor represent the apparent permeability of test compound from the apical to basal side of the cellular monolayer in the presence and absence of 10 μM P-gp inhibitor GF120918, respectively.
All samples were analyzed on LC/MS/MS using an AB Sciex API 4000 instrument, coupled to a Shimadzu LC-20AD LC Pump system. Analytical samples were separated using a Waters Atlantis T3 dC18 reverse phase HPLC column (10 mm×2.1 mm) at a flow rate of 0.5 mL/min. The mobile phase consisted of 0.1% formic acid in water (solvent A) and 0.1% formic acid in acetonitrile (solvent B).

[3] = +GF120918 (10 μM), 10 μM compound

| SMILES | Plasma Stability Half-Life [1] | Plasma Stability Half-Life [2] | Abs. Quotient (Caco-2 cells) | Caco-2 Cells Permeability Recovery Rate (Caco-2 cells; [3]) | Caco-2 Cells Permeability Recovery Rate (Caco-2 cells; −GF120918, 10 μM compound) |
| --- | --- | --- | --- | --- | --- |
| CCCCCC(=O)NC(Cc1ccc(OC(=O)C(N)C(C)C)cc1)C(=O)NC(C(=O)NCCCCCC(N)=O)C(C)CC (stereo not drawn) [Compound A27] (Hexanoyl-Tyr(Val)-Ile-[Ahx]-NH2; configuration not given here) | 13.2 min | 31.9 min | 0.70 | 94% | 90% |
| CCCCCC(=O)NC(Cc1ccc(OC(=O)CN2CCN(C)CC2)cc1)C(=O)NC(C(=O)NCCCCCC(N)=O)C(C)CC (stereo not drawn) [Compound A22] | 87.9 min | 8.7 min | 0.78 | 104% | 107% |
| CCCCCC(=O)NC(Cc1ccc(OC(=O)CN2CCCC2)cc1)C(=O)NC(C(=O)NCCCCCC(N)=O)C(C)CC (stereo not drawn) [Compound A24] | 7.3 min | 64.2 min | 0.88 | 72% | 72% |
